Type in all cases: cell-based
One test deals with T1, CDK2 (Homo sapiens, UniProt P24941).
T1 construct: host or cells: HEK293-CDK2-Hibit
As to the kind of experiment: HiBit Assay Protocol for CDK2 (HIBIT protein quantification, degradation). Particulars: HEK293-CDK2-Hibit cells, compound treatment for 6 hours; for DC50: ABS DC50. In short, it runs like this:
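HEK293 cells expressing HiBiT-tagged CDK2 were seeded overnight, then treated 6 h with a 3-fold, 10-point compound dilution series. CDK2 levels were read as luminescence after lytic HiBiT/LgBiT detection, normalised to DMSO-only and medium-only controls, and DC50 derived by curve fitting.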

Another test deals with T2, CCNE1 (Homo sapiens, UniProt P24864).
T2 construct: host or cells: HEK293-CCNE1-Hibit
As to the kind of experiment: HiBit Assay Protocol for CCNE1 (HIBIT protein quantification, degradation). Particulars: HEK293-CCNE1-Hibit cells, compound treatment for 6 hours. In short, it runs like this:
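HEK293 cells expressing HiBiT-tagged CCNE1 were seeded overnight, then treated 6 h with a 3-fold, 10-point compound dilution series. HiBiT levels were read by lytic LgBiT luminescence and normalised to DMSO-only (high) and medium-only (low) controls. DC50 was derived by curve fitting.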

For another test, the target named is T3, CDK9 (Homo sapiens, UniProt P50750).
T3 construct: host or cells: HEK293-CDK9-Hibit
As to the kind of experiment: HiBit Assay Protocol for CDK9 (HIBIT protein quantification, degradation). The following applies: HEK293-CDK9-Hibit cells, compound treatment for 6 hours; for Dmax: read-out: CDK9 HIBIT Protein Quantification Maximum. Here is the method:
HiBit Assay Protocol for CDK9
• 1. The culture medium for HEK293-CDK9-Hibit cell was prepared using DMEM with 10% FBS. • 2. Cells were cultivated in T-75 flasks in a cell culture incubator set at 37° C., 5% CO2, 95% relative humidity. Cells were allowed to reach 80-90% confluence before detaching and splitting. • 3. Cultivated cells were rinsed in T-75 flasks with 5 mL PBS. Aspirated off. Added 1.5 mL trypsin, and incubated the cells at 37° C. for approximately 5 minutes or until the cells detached and floated. • 4. Trypsin was inactivated by adding excess serum containing medium. • 5. Cells were harvested from flask into cell culture medium and then the cell number was counted. HEK293-CDK9-Hibit cells were seeded into 384-well plate (cell density: 1.6×10^5 cells/well/50 uL medium) in DMEM medium according to the plate map below and were incubated overnight at 37° C. and 5% CO2. • Note: Cell Cultured Medium: 90% DMEM+10% FBS+1% Penicillin-Streptomycin Liquid
• 1. Test compounds were dissolved at 3 mM DMSO stock solution. Transferred 45 uL of stock solution to a 384 pp-plate. Perform 3-fold, 10-point dilution via transferring 15 uL compound into 30 uL DMSO by using TECAN liquid handler. • 2. The plates were spinned at room temperature at 1,000 RPM for 1 minute. • 3. Transferred 50 nL of diluted compound from compound source plate into the cell plate by Echo. • 4. After compound treatment for 6 hours, removed the plate from incubators and equilibrated at room temperature for 15 minutes. Prepared the HiBit reagent consists of the following ratios: 10 mL of Nano-Glo®-HiBiT Lytic Buffer, 200 uL of Nano-Glo®-HiBiT Lytic Substrate and 100 uL of LgBiT Protein, mixed thoroughly. Added 20 uL of HiBit reagent into each well and spinned the plates at room temperature at 1,000 RPM for 1 minute to be detected. Plates were then shaken at 600 RPM at room temperature for 20 minutes, and read by EnVision. • 5. The inhibition activity was calculated following the formula below:
[formula] • Note: Where HC was obtained from cells treated with 0.1% DMSO only; LC was obtained from culture medium only. • 6. The ABS DC50 was calculated by fitting the Curve using Xlfit (v5.3.1.3), equation 201: […]

Like-named read-outs stand apart in the source and are kept apart here.

T2 sequence (P24864 whole entry): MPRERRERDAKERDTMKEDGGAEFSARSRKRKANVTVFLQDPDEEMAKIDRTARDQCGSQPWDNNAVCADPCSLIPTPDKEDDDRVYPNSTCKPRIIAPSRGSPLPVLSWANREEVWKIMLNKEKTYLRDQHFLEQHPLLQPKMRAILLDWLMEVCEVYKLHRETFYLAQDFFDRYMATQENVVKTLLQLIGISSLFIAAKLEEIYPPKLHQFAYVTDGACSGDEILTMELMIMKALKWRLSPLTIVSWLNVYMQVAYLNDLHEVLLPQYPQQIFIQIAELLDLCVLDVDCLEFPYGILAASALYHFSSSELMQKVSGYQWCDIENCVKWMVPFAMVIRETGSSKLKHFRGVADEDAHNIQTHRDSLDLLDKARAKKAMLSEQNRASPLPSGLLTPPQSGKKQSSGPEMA
T3 sequence (P50750 whole entry): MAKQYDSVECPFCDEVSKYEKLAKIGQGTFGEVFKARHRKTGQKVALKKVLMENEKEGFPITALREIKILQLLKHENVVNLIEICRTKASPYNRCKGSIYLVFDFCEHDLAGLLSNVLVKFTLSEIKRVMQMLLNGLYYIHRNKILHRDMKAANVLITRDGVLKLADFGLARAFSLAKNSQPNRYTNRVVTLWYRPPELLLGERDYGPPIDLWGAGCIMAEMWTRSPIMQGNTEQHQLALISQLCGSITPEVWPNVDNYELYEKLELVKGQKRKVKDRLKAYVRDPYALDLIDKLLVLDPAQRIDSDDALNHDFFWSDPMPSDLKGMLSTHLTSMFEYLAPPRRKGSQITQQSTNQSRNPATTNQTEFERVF

`CC1CCCC1N1C(=O)C2(CC2)c2cnc(NC3CCN(S(=O)(=O)N4CC(N(C)C(=O)CCCc5cccc6c5n(C)c(=O)n6C5CCC(=O)NC5=O)C4)CC3)nc21` (stereo not drawn) [Compound 22, 4-(1-(2,6-dioxopiperidin-3-yl)-3-methyl-2-oxo-2,3-dihydro-1H-benzo[d]imidazol-4-yl)-N-methyl-N-(1-((4-((7′-(2-methylcyclopentyl)-6′-oxo-6′,7′-dihydrospiro[cyclopropane-1,5′-pyrrolo[2,3-d]pyrimidin]-2′-yl)amino)piperidin-1-yl)sulfonyl)azetidin-3-yl)butanamide]: on CDK2, the “CDK2 HIBIT Protein Quantification Maximum” value stood at 57% and the DC50 was 44 nM. In addition, on CCNE1, the “CCNE1 HIBIT Protein Quantification Maximum” value is recorded as 18%. Also, at CDK9 (6 h), the Dmax amounted to 35%.

Take `CC1CCCC1N1C(=O)C2(CC2)c2cnc(NC3CCN(S(=O)(=O)N4CCC5(CCCN5C(=O)CCCCc5cccc6c5n(C)c(=O)n6C5CCC(=O)NC5=O)C4)CC3)nc21` (stereo not drawn) [Compound 94]: on CDK2, the “CDK2 HIBIT Protein Quantification Maximum” value is 63% and it took 16 nM to reach half-maximal degradation (DC50). Moreover, the “CCNE1 HIBIT Protein Quantification Maximum” value at CCNE1 was 39%. In addition, the Dmax on CDK9 (6 h) was determined as 51%. In addition, it took 2 nM to reach half-maximal degradation at CDK9 (ABS DC50) (DC50).

For `CC1CCCC1N1C(=O)C2(CC2)c2cnc(NC3CCN(S(=O)(=O)N4CC5(CN(CCCCOc6ccc7c(c6)n(C)c(=O)n7C6CCC(=O)NC6=O)C5)C4)CC3)nc21` (stereo not drawn) [Compound 143], the “CDK2 HIBIT Protein Quantification Maximum” value at CDK2 was 11%. At CCNE1, the “CCNE1 HIBIT Protein Quantification Maximum” value was determined as 1%. Also, the Dmax at CDK9 (6 h) was -2%.

In the case of `CC1CCCC1N1C(=O)C2(CC2)c2cnc(NC3CCN(S(=O)(=O)N4CC5(CCN(C(=O)CCCCCc6cccc7c6n(C)c(=O)n7C6CCC(=O)NC6=O)CC5)C4)CC3)nc21` (stereo not drawn) [Compound 40], at CDK2, the “CDK2 HIBIT Protein Quantification Maximum” value was 69% and the DC50 amounted to 5 nM. The “CCNE1 HIBIT Protein Quantification Maximum” value on CCNE1 worked out at 29%. The Dmax at CDK9 (6 h) stood at 44%.

Consider `CC(C)[C@@H]1CN([C@@H](C)c2cccc(S(=O)(=O)N3CC[C@H](Nc4ncc5c(n4)N([C@@H]4CCC[C@@H](O)C4)C(=O)C54CC4)[C@H](F)C3)c2)CCN1c1ccc2c(N3CCC(=O)NC3=O)nn(C)c2c1` [Compound 205], for which, at CDK2, the “CDK2 HIBIT Protein Quantification Maximum” value is listed as 88% and the 50% degradation concentration (DC50) was found to be 13.1 nM. Moreover, the “CCNE1 HIBIT Protein Quantification Maximum” value on CCNE1 worked out at 38%. Moreover, at CDK9 (6 h), the Dmax stood at 14%.

For the molecule `C[C@@H]1CN(c2ccc3c(N4CCC(=O)NC4=O)nn(C)c3c2)CCN1[C@H](C)c1cccc(S(=O)(=O)N2CC[C@H](Nc3ncc4c(n3)N([C@@H]3CCC[C@@H](O)C3)C(=O)C43CC3)[C@H](F)C2)c1` [Compound 191, 1-(6-((R)-4-((R)-1-(3-(((3R,4S)-3-Fluoro-4-((7′-((1R,3R)-3-hydroxycyclohexyl)-6′-oxo-6′,7′-dihydrospiro[cyclopropane-1,5′-pyrrolo[2,3-d]pyrimidin]-2′-yl)amino)piperidin-1-yl)sulfonyl)phenyl)ethyl)-3-methylpiperazin-1-yl)-1-methyl-1H-indazol-3-yl)dihydropyrimidine-2,4(1H,3H)-dione], on CDK2, the “CDK2 HIBIT Protein Quantification Maximum” value is on record as 90% and half-maximal degradation (DC50) was put at 21.9 nM. The “CCNE1 HIBIT Protein Quantification Maximum” value at CCNE1 was found to be 48%. Moreover, the Dmax at CDK9 (6 h) came out at 9%.

In the case of `Cn1c(=O)n(C2CCC(=O)NC2=O)c2ccc(-c3ccc(Oc4cccc(S(=O)(=O)N5CCC(Nc6ncc7c(n6)N([C@@H]6CCC[C@@H](O)C6)C(=O)C76CC6)CC5)c4)cc3)cc21` (stereo partly drawn) [Compound 149, 3-(5-{4-[3-(4-{7′-[(1R,3R)-3-Hydroxycyclohexyl]-6′-oxospiro[cyclopropane-1,5′-pyrrolo[2,3-d]pyrimidin]-2′-ylamino}piperidin-1-ylsulfonyl)phenoxy]phenyl}-3-methyl-2-oxo-1,3-benzodiazol-1-yl)piperidine-2,6-dione], on CDK2, the “CDK2 HIBIT Protein Quantification Maximum” value was 69% and the DC50 is 13.9 nM. For the same molecule, the “CCNE1 HIBIT Protein Quantification Maximum” value on CCNE1 turned out to be 11%. At CDK9 (6 h), the Dmax is 17%.

As to `CC(c1cccc(S(=O)(=O)N2CC[C@H](Nc3ncc4c(n3)N([C@@H]3CCC[C@@H](O)C3)C(=O)C43CC3)[C@H](F)C2)c1)N1CCC(c2ccc3c(N4CCC(=O)NC4=O)nn(C)c3c2)CC1` (stereo partly drawn) [Compound 188], at CDK2, the “CDK2 HIBIT Protein Quantification Maximum” value was found to be 85% and the half-maximal degradation concentration (DC50) was 1.92 nM. The “CCNE1 HIBIT Protein Quantification Maximum” value at CCNE1 is 45%. The Dmax at CDK9 (6 h) worked out at 24%.

For the molecule `CC1CCCC1N1C(=O)C2(CC2)c2cnc(NC3CCN(S(=O)(=O)N4CC5CN(C(=O)CCCCc6cccc7c6n(C)c(=O)n7C6CCC(=O)NC6=O)CC54)CC3)nc21` (stereo not drawn) [Compound 99], the “CDK2 HIBIT Protein Quantification Maximum” value on CDK2 is given as 31%. For the same molecule, the “CCNE1 HIBIT Protein Quantification Maximum” value on CCNE1 was 1%. Moreover, at CDK9 (6 h), the Dmax is 11%.

On to `CC1CCCC1N1C(=O)C2(CC2)c2cnc(NC3CCN(S(=O)(=O)N4CC5CN(C(=O)CCCc6ccc7c(c6)n(C)c(=O)n7C6CCC(=O)NC6=O)CC54)CC3)nc21` (stereo not drawn) [Compound 70], for which, on CDK2, the “CDK2 HIBIT Protein Quantification Maximum” value is recorded as −3%. In addition, the “CCNE1 HIBIT Protein Quantification Maximum” value on CCNE1 is 6%. Moreover, the Dmax on CDK9 (6 h) was 15%.

With `CC1CCCC1N1C(=O)C2(CC2)c2cnc(NC3CCN(S(=O)(=O)N4CC(N(C)C(=O)CCCc5ccc6c(c5)n(C)c(=O)n6C5CCC(=O)NC5=O)C4)CC3)nc21` (stereo not drawn) [Compound 61], on CDK2, the “CDK2 HIBIT Protein Quantification Maximum” value stood at 60% and the DC50 came out at 3 nM. For the same molecule, the “CCNE1 HIBIT Protein Quantification Maximum” value at CCNE1 was determined as 29%. In addition, on CDK9 (6 h), the Dmax amounted to 23%.

For the molecule `Cn1nc(N2CCC(=O)NC2=O)c2ccc(C3CCN(Cc4cccc(S(=O)(=O)N5CCC(Nc6ncc7c(n6)N([C@@H]6CCC[C@@H](O)C6)C(=O)C76CC6)CC5)c4)C(C)(C)C3)cc21` (stereo partly drawn) [Compound 183, 1-[6-(1-{[3-(4-{7′-[(1R,3R)-3-Hydroxycyclohexyl]-6′-oxospiro[cyclopropane-1,5′-pyrrolo[2,3-d]pyrimidin]-2′-ylamino}piperidin-1-ylsulfonyl)phenyl]methyl}-2,2-dimethylpiperidin-4-yl)-1-methylindazol-3-yl]-1,3-diazinane-2,4-dione], at CDK2, the “CDK2 HIBIT Protein Quantification Maximum” value was found to be 67% and the half-maximal degradation concentration (DC50) is 2.84 nM. Moreover, the “CCNE1 HIBIT Protein Quantification Maximum” value at CCNE1 is on record as 43%. Further, the Dmax on CDK9 (6 h) came to 24%.

As for `CC1CCCC1N1C(=O)C2(CC2)c2cnc(NC3CCN(S(=O)(=O)N4CCC5(CCCN5C(=O)CCc5ccc6c(c5)n(C)c(=O)n6C5CCC(=O)NC5=O)C4)CC3)nc21` (stereo not drawn) [Compound 56], on CDK2, the “CDK2 HIBIT Protein Quantification Maximum” value is recorded as 41%. Also, on CCNE1, the “CCNE1 HIBIT Protein Quantification Maximum” value is reported as 19%. Also, the Dmax on CDK9 (6 h) amounted to 15%.

In the case of `Cn1nc(N2CCC(=O)NC2=O)c2ccc(C3CCN(Cc4cncc(S(=O)(=O)N5CCC(Nc6ncc7c(n6)N([C@H]6CCC[C@H](O)C6)C(=O)C76CC6)CC5)c4)CC3)cc21` (stereo in doubt) [Compound 161, 1-[6-(1-{[5-(4-{7′-[(1S,3S)-3-Hydroxycyclohexyl]-6′-oxospiro[cyclopropane-1,5′-pyrrolo[2,3-d]pyrimidin]-2′-ylamino}piperidin-1-ylsulfonyl)pyridin-3-yl]methyl}piperidin-4-yl)-1-methylindazol-3-yl]-1,3-diazinane-2,4-dione], on CDK2, the “CDK2 HIBIT Protein Quantification Maximum” value was 79% and the DC50 came out at 6.06 nM. For the same molecule, the “CCNE1 HIBIT Protein Quantification Maximum” value on CCNE1 turned out to be 45%. The Dmax on CDK9 was found to be 17%.

With `Cn1nc(N2CCC(=O)NC2=O)c2ccc(N3CCN(Cc4cccc(S(=O)(=O)N5CCC(Nc6ncc7c(n6)N([C@@H]6CCC[C@@H](O)C6)C(=O)C76CC6)CC5)c4)CC3)cc21` [Compound 184], on CDK2, the “CDK2 HIBIT Protein Quantification Maximum” value is given as 90% and the DC50 turned out to be 5.47 nM. Moreover, the “CCNE1 HIBIT Protein Quantification Maximum” value at CCNE1 is reported as 43%. Further, the Dmax on CDK9 (6 h) turned out to be 22%.
